Reference: US7390790B2, “Ring-substituted diphenylazetidinones, process for their preparation, medicaments comprising these compounds, and their use” (Sanofi-Aventis Deutschland GmbH, priority 2002, dated 2008)

system: cholesterol absorption; assay: Cholesterol absorption test: uptake of 14C-cholesterol by the liver; type: in vivo, mouse; conditions: dose at which the uptake of 14C-cholesterol by the liver was halved (50%), based on a control group; peroral test substance immediately prior to 14C-cholesterol test meal; interpolated from dose-effect curve
Description: Effect of the compounds of the invention on cholesterol absorption and 3H-taurocholic acid excretion using fecal excrement of mice, rats or hamsters
NMRI mice, Wistar rats, or Golden Syrian hamsters (in groups of n=4-6) were kept in metabolic cages, where they were fed with a standard diet (Altromin, Lage (Lippe)). The afternoon prior to the administration of the radioactive tracers (14C-cholesterol), the feed was removed and the animals were adapted to grates.
Additionally, the animals were labeled s.c. with 3H-TCA (taurocholic acid) (for example 1 μCi/mouse up to 5 μCi/rat) 24 hours prior to the peroral administration of the test meal (14C-cholesterol in Intralipid® 20, Pharmacia-Upjohn).
Cholesterol absorption test: 0.25 ml/mouse Intralipid® 20 (Pharmacia-Upjohn) ((spiked with 0.25 μCi of 14C-cholesterol in 0.1 mg of cholesterol) was administered perorally by gavage.
Test substances were prepared separately in 0.5% methylcellulose (Sigma)/5% Solutol (BASF, Ludwigshafen) or a suitable vehicle.
The administration volume of the test substance was 0.5 ml/mouse. The test substance was administered immediately prior to the test meal (Intralipid labeled with 14C-cholesterol) (cholesterol absorption test).
The feces were collected over a period of 24 h. Fecal elimination of 14C-cholesterol and 3H-taurocholic acid (TCA) was determined after 24 hours.
The livers were removed and homogenized, and aliquots were incinerated in an oximate (Model 307, Packard) to determine the amount of 14C-cholesterol that had been taken up/absorbed.
The amount of ^14C-cholesterol taken up by the liver was based on the administered dose. The ED50 values were interpolated from a dose-effect curve as the dose at which the uptake of 14C-cholesterol by the liver was halved (50%), based on a control group.

Structure (SMILES)	ED50 (liver) [mg/mouse]
O=C1C(CCC(O)c2ccc(F)cc2)C(c2ccc(OCc3ccc(C[N+]45CCN(CC4)CC5)cc3)cc2)N1c1ccc(F)cc1.[Br-] (stereo not drawn) [Example IV, 1-[4-(4-{1-(4-Fluorophenyl)-3-[3-(4-fluorophenyl)-3-hydroxypropyl]-4-oxoazetidin-2-yl}phenoxymethyl)benzyl]-4-aza-1-azoniabicyclo[2.2.2]octane bromide]	<0.1
O=C1C(CCC(O)c2ccc(F)cc2)C(c2ccc(OCc3ccccc3CNCC(O)C(O)C(O)C(O)CO)cc2)N1c1ccc(F)cc1 (stereo not drawn) [VII, 1-(4-Fluorophenyl)-3-[3-(4-fluorophenyl)-3-hydroxypropyl]-4-(4-{2-[(2,3,4,5,6-pentahydroxyhexylamine)methyl]benzyloxy}phenyl)azetidin-2-one]	<1.0
O=C1C(CCC(O)c2ccc(F)cc2)C(c2ccc(OCc3ccccc3C[N+]34CCN(CC3)CC4)cc2)N1c1ccc(F)cc1.[Br-] (stereo not drawn) [VI, 1-[2-(4-{1-(4-Fluorophenyl)-3-[3-(4-fluorophenyl)-3-hydroxypropyl]-4-oxoazetidin-2-yl}phenoxymethyl)benzyl]-4-aza-1-azoniabicyclo[2.2.2]octane bromide]	0.3
O=C(Cc1ccc(C[N+]23CCN(CC2)CC3)cc1)NCc1ccc(C2C(CCC(O)c3ccc(F)cc3)C(=O)N2c2ccc(F)cc2)cc1.O=C([O-])C(F)(F)F (stereo not drawn) [Example XV, 1-{4-[(4-{1-(4-Fluorophenyl)-3-[3-(4-fluorophenyl)-3-hydroxypropyl]-4-oxoazetidin-2-yl}-benzylcarbamoyl)-methyl]-benzyl}-4-aza-1-azoniabicyclo[2.2.2]octane trifluoroacetate]	<1.0
COc1ccc(C2C(CCC(O)c3ccc(F)cc3)C(=O)N2c2ccc(CNC(=O)c3ccc(Oc4ccc(C(=O)NCC(O)C(O)C(O)C(O)CO)cc4)cc3)cc2)cc1 (stereo not drawn) [Example I, 2,3,4,5,6-Pentahydroxyhexylamide of 4-(4-{4-[3-[3-(4-fluorophenyl)-3-hydroxypropyl]-2-(4-methoxyphenyl)-4-oxoazetidin-1-yl]benzylcarbamoyl}phenoxy)benzoic acid]	<0.1
O=C1C(CCC(O)c2ccc(F)cc2)C(c2ccc(OCc3ccc(CNCC(O)C(O)C(O)C(O)CO)cc3)cc2)N1c1ccc(F)cc1 (stereo not drawn) [Example V, 1-(4-Fluorophenyl)-3-[3-(4-fluorophenyl)-3-hydroxypropyl]-4-(4-{4-[(2,3,4,5,6-pentahydroxyhexylamine)methyl]benzyloxy}phenyl)azetidin-2-one]	<0.1
O=C1C(CCC(O)c2ccc(F)cc2)C(c2ccc(OCc3cccc(CNCC(O)C(O)C(O)C(O)CO)c3)cc2)N1c1ccc(F)cc1 (stereo not drawn) [IX, 1-(4-Fluorophenyl)-3-[3-(4-fluorophenyl)-3-hydroxypropyl]-4-(4-{3-[(2,3,4,5,6-pentahydroxyhexylamine)methyl]benzyloxy}phenyl)azetidin-2-one]	<0.1
O=C(NCc1ccc(N2C(=O)C(CCC(O)c3ccccc3)C2c2ccccc2)cc1)c1ccc(Oc2ccc(C(=O)NCC(O)C(O)C(O)C(O)CO)cc2)cc1 (stereo not drawn) [Example II, 2,3,4,5,6-Pentahydroxyhexylamide of 4-(4-{4-[3-(3-hydroxy-3-phenylpropyl)-2-oxo-4-phenylazetidin-1-yl]benzylcarbamoyl}phenoxy)benzoic acid]	<1.0
O=C1C(CCC(O)c2ccc(F)cc2)C(c2ccc(OCc3cccc(C[N+]45CCN(CC4)CC5)c3)cc2)N1c1ccc(F)cc1.[Br-] (stereo not drawn) [VIII, 1-[3-(4-{1-(4-Fluorophenyl)-3-[3-(4-fluorophenyl)-3-hydroxypropyl]-4-oxoazetidin-2-yl}phenoxymethyl)benzyl]-4-aza-1-azoniabicyclo[2.2.2]octane bromide]	<1.0
